From PubChem BioAssay AID192 (DTP/NCI, 2004)
Where “and” joins values, the source holds several entries; their conditions need not be identical. Equal entries are not always repeated. Toxic doses and inconclusive results are not listed.

Test system: BDF1 mice, B16 melanoma ip, median survival T/C
Assay: NCI In Vivo Anticancer Drug Screen. Data for tumor model B16 Melanoma (intraperitoneal) in B6D2F1 (BDF1) mice
Conditions: endpoint: median survival time, higher = longer survival
In short: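 Mice with transplantable tumors; drug vs vehicle groups; endpoint survival or tumor size; value = T/C.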

[1] = dose: 25.0 mg/kg/injection, schedule: Q01DX009 (ip), vehicle: Klucel (hydroxypropylcellulose) (HPC)

COc1cc(NS(C)(=O)=O)ccc1Nc1c2ccccc2nc2ccccc12
T/C (dose: 0.1 mg/kg/injection, schedule: Q01DX009 (ip), vehicle: saline): 102 % of control | T/C (dose: 0.2 mg/kg/injection, schedule: Q01DX009 (ip), vehicle: saline): 118 % of control | T/C (dose: 0.25 mg/kg/injection, schedule: Q01DX009 (ip), vehicle: other): 119 % of control | T/C (dose: 0.5 mg/kg/injection, schedule: Q01DX009 (ip), vehicle: Klucel (hydroxypropylcellulose) (HPC)): 183 % of control | T/C (dose: 0.5 mg/kg/injection, schedule: Q01DX009 (ip), vehicle: lactic acid): 150 % of control | T/C (dose: 0.5 mg/kg/injection, schedule: Q01DX009 (ip), vehicle: other): 120 % of control | T/C (dose: 0.5 mg/kg/injection, schedule: Q03HX024 (oral), vehicle: lactic acid): 100 % of control | T/C (dose: 0.75 mg/kg/injection, schedule: Q01DX009 (ip), vehicle: other): 113 % of control | T/C (dose: 0.8 mg/kg/injection, schedule: Q01DX005 (iv), vehicle: lactic acid): 100 % of control | T/C (dose: 0.8 mg/kg/injection, schedule: Q01DX009 (ip), vehicle: Klucel (hydroxypropylcellulose) (HPC)): 180 % of control | T/C (dose: 0.8 mg/kg/injection, schedule: Q01DX009 (ip), vehicle: saline): 177 % of control | T/C (dose: 0.8 mg/kg/injection, schedule: Q04DX003 (iv), vehicle: lactic acid): 102 % of control | T/C (dose: 1.0 mg/kg/injection, schedule: Q01DX009 (ip), vehicle: Klucel (hydroxypropylcellulose) (HPC)): 160 % of control and 166 % of control and 189 % of control | T/C (dose: 1.0 mg/kg/injection, schedule: Q01DX009 (ip), vehicle: clinical formulation): 183 % of control | T/C (dose: 1.0 mg/kg/injection, schedule: Q01DX009 (ip), vehicle: lactic acid): 202 % of control | T/C (dose: 1.0 mg/kg/injection, schedule: Q01DX009 (oral), vehicle: lactic acid): 96 % of control | T/C (dose: 1.0 mg/kg/injection, schedule: Q01DX009 (oral), vehicle: other): 106 % of control and 109 % of control | T/C (dose: 1.0 mg/kg/injection, schedule: Q03HX024 (oral), vehicle: lactic acid): 97 % of control | T/C (dose: 1.0 mg/kg/injection, schedule: Q04DX003 (ip), vehicle: other): 118 % of control | T/C (dose: 1.25 mg/kg/injection, schedule: Q01DX009 (ip), vehicle: saline): 177 % of control | T/C (dose: 1.5 mg/kg/injection, schedule: Q01DX009 (ip), vehicle: other): 114 % of control | T/C (dose: 1.6 mg/kg/injection, schedule: Q01DX005 (iv), vehicle: lactic acid): 110 % of control | T/C (dose: 1.6 mg/kg/injection, schedule: Q04DX003 (iv), vehicle: lactic acid): 92 % of control | T/C (dose: 2.0 mg/kg/injection, schedule: Q01DX009 (ip), vehicle: Klucel (hydroxypropylcellulose) (HPC)): 184 % of control | T/C (dose: 2.0 mg/kg/injection, schedule: Q01DX009 (ip), vehicle: clinical formulation): 212 % of control | T/C (dose: 2.0 mg/kg/injection, schedule: Q01DX009 (ip), vehicle: lactic acid): 218 % of control | T/C (dose: 2.0 mg/kg/injection, schedule: Q01DX009 (ip), vehicle: other): 158 % of control | T/C (dose: 2.0 mg/kg/injection, schedule: Q01DX009 (oral), vehicle: lactic acid): 98 % of control | T/C (dose: 2.0 mg/kg/injection, schedule: Q01DX009 (oral), vehicle: other): 105 % of control and 109 % of control | T/C (dose: 2.0 mg/kg/injection, schedule: Q03HX016 (oral), vehicle: lactic acid): 101 % of control | T/C (dose: 2.0 mg/kg/injection, schedule: Q03HX024 (oral), vehicle: lactic acid): 101 % of control | T/C (dose: 2.0 mg/kg/injection, schedule: Q04DX003 (oral), vehicle: lactic acid): 105 % of control | T/C (dose: 2.0 mg/kg/injection, schedule: Q04DX003 (oral), vehicle: other): 105 % of control and 96 % of control | T/C (dose: 3.0 mg/kg/injection, schedule: Q01DX009 (ip), vehicle: Klucel (hydroxypropylcellulose) (HPC)): 250 % of control | T/C (dose: 3.12 mg/kg/injection, schedule: Q01DX009 (ip), vehicle: saline): 113 % of control | T/C (dose: 3.3 mg/kg/injection, schedule: Q01DX005 (iv), vehicle: lactic acid): 155 % of control | T/C (dose: 3.3 mg/kg/injection, schedule: Q04DX003 (iv), vehicle: lactic acid): 105 % of control | T/C (dose: 3.75 mg/kg/injection, schedule: Q04DX003 (ip), vehicle: clinical formulation): 173 % of control | T/C (dose: 4.0 mg/kg/injection, schedule: Q01DX009 (oral), vehicle: lactic acid): 105 % of control | T/C (dose: 4.0 mg/kg/injection, schedule: Q01DX009 (oral), vehicle: other): 100 % of control and 96 % of control | T/C (dose: 4.0 mg/kg/injection, schedule: Q04DX003 (oral), vehicle: lactic acid): 110 % of control | T/C (dose: 4.0 mg/kg/injection, schedule: Q04DX003 (oral), vehicle: other): 97 % of control and 105 % of control and 103 % of control | T/C (dose: 5.0 mg/kg/injection, schedule: Q01DX009 (ip), vehicle: Klucel (hydroxypropylcellulose) (HPC)): 223 % of control | T/C (dose: 6.0 mg/kg/injection, schedule: Q01DX009 (ip), vehicle: other): 72 % of control | T/C (dose: 6.25 mg/kg/injection, schedule: Q01DX009 (ip), vehicle: saline): 124 % of control | T/C (dose: 6.5 mg/kg/injection, schedule: Q01DX005 (iv), vehicle: lactic acid): 112 % of control | T/C (dose: 6.5 mg/kg/injection, schedule: Q04DX003 (iv), vehicle: lactic acid): 107 % of control | T/C (dose: 7.5 mg/kg/injection, schedule: Q04DX003 (ip), vehicle: clinical formulation): 193 % of control | T/C (dose: 8.0 mg/kg/injection, schedule: Q01DX001 (ip), vehicle: lactic acid): 151 % of control | T/C (dose: 8.0 mg/kg/injection, schedule: Q01DX001 (oral), vehicle: lactic acid): 110 % of control | T/C (dose: 8.0 mg/kg/injection, schedule: Q01DX009 (oral), vehicle: other): 105 % of control and 103 % of control | T/C (dose: 8.0 mg/kg/injection, schedule: Q04DX003 (ip), vehicle: other): 188 % of control | T/C (dose: 8.0 mg/kg/injection, schedule: Q04DX003 (oral), vehicle: lactic acid): 111 % of control | T/C (dose: 8.0 mg/kg/injection, schedule: Q04DX003 (oral), vehicle: other): 105 % of control [middle of 4 runs] | T/C (dose: 8.0 mg/kg/injection, schedule: Q08DX002 (oral), vehicle: lactic acid): 107 % of control | T/C (dose: 12.5 mg/kg/injection, schedule: Q01DX009 (ip), vehicle: saline): 163 % of control | T/C (dose: 12.5 mg/kg/injection, schedule: Q04DX003 (ip), vehicle: Klucel (hydroxypropylcellulose) (HPC)): 166 % of control | T/C (dose: 13.0 mg/kg/injection, schedule: Q04DX003 (iv), vehicle: lactic acid): 120 % of control | T/C (dose: 15.0 mg/kg/injection, schedule: Q04DX003 (ip), vehicle: clinical formulation): 173 % of control | T/C (dose: 16.0 mg/kg/injection, schedule: Q01DX001 (oral), vehicle: lactic acid): 110 % of control | T/C (dose: 16.0 mg/kg/injection, schedule: Q04DX003 (ip), vehicle: other): 152 % of control | T/C (dose: 16.0 mg/kg/injection, schedule: Q04DX003 (oral), vehicle: other): 97 % of control and 113 % of control and 110 % of control | T/C (dose: 16.0 mg/kg/injection, schedule: Q08DX002 (oral), vehicle: lactic acid): 108 % of control | T/C (dose: 25.0 mg/kg/injection, schedule: Q01DX001 (ip), vehicle: saline sonified): 166 % of control | T/C (dose: 25.0 mg/kg/injection, schedule: Q01DX001 (ip), vehicle: saline): 160 % of control | T/C (dose: 25.0 mg/kg/injection, schedule: Q04DX003 (ip), vehicle: Klucel (hydroxypropylcellulose) (HPC)): 285 % of control | T/C (dose: 26.0 mg/kg/injection, schedule: Q04DX003 (iv), vehicle: lactic acid): 120 % of control | T/C (dose: 32.0 mg/kg/injection, schedule: Q01DX001 (oral), vehicle: lactic acid): 116 % of control | T/C (dose: 32.0 mg/kg/injection, schedule: Q04DX003 (oral), vehicle: other): 121 % of control [middle of 4 runs] | T/C (dose: 32.0 mg/kg/injection, schedule: Q08DX002 (oral), vehicle: lactic acid): 115 % of control | T/C (dose: 50.0 mg/kg/injection, schedule: Q01DX001 (ip), vehicle: saline sonified): 102 % of control | T/C (dose: 64.0 mg/kg/injection, schedule: Q04DX003 (oral), vehicle: other): 110 % of control | T/C (dose: 100.0 mg/kg/injection, schedule: Q01DX001 (ip), vehicle: saline sonified): 169 % of control

Cc1c(Cl)cccc1NC(=O)c1ccc(Cl)cc1Cl
T/C (dose: 100.0 mg/kg/injection, schedule: Q04DX003 (ip), vehicle: Klucel (hydroxypropylcellulose) (HPC)): 95 % of control | T/C (dose: 200.0 mg/kg/injection, schedule: Q04DX003 (ip), vehicle: Klucel (hydroxypropylcellulose) (HPC)): 102 % of control | T/C (dose: 400.0 mg/kg/injection, schedule: Q04DX003 (ip), vehicle: Klucel (hydroxypropylcellulose) (HPC)): 100 % of control

Nc1ccccc1SC1CC(=O)N(c2ccccc2)C1=O (configuration not stated)
T/C [1]: 97 % of control | T/C (dose: 50.0 mg/kg/injection, schedule: Q01DX009 (ip), vehicle: Klucel (hydroxypropylcellulose) (HPC)): 91 % of control | T/C (dose: 100.0 mg/kg/injection, schedule: Q01DX009 (ip), vehicle: Klucel (hydroxypropylcellulose) (HPC)): 90 % of control and 92 % of control

COc1cccc(C2CCN(C)C2)c1 (configuration not stated)
T/C (dose: 6.25 mg/kg/injection, schedule: Q01DX009 (ip), vehicle: Klucel (hydroxypropylcellulose) (HPC)): 89 % of control | T/C (dose: 12.5 mg/kg/injection, schedule: Q01DX009 (ip), vehicle: Klucel (hydroxypropylcellulose) (HPC)): 100 % of control | T/C [1]: 100 % of control
